Each block holds one compound with its values, some of them ahead of it.
Tests used:
[1] = Metabolite identification, atRA in representative human fetal liver S9 fractions; assay type: in vitro ADME; conditions: 5 µM atRA, 0.3 mg S9 protein in 1 mL, 10 min, two representative livers
Protocol: (§1) The incubations were quenched with ethyl acetate, metabolites extracted as previously described[15] and the product formation was then measured by LC-MS/MS as described below. For fetal liver S9 incubations two representative livers were chosen based on the mRNA expression levels of CYP3A7 and CYP26A1. […] After a pre-incubation of 5 min the reactions were initiated with the addition of NADPH (1 mM final concentration) and allowed to proceed for 10 min.
(§2) In brief, analytes were separated using a gradient elution as follows: starting from 10:90 acetonitrile: aqueous to 1:1 acetonitrile: aqueous over 0.5 min then increased to 85:15 acetonitrile: aqueous over 4 min and then after a 0.1 min hold increased to 95:5 acetonitrile: aqueous held for 2.5 min. The aqueous phase contained 0.1 % formic acid throughout. […] Retinoid concentrations were quantified using Analyst software and peak height ratios between the analyte and the internal standard (4-oxo-RA-d3).

[2] = In vitro to in vivo scaling of atRA metabolism, fetal liver extraction ratio (well-stirred model); assay type: in vitro ADME, human; conditions: at any gestational age
[3] = parameters: method as in PMID 20513361; conditions: value used for scaling; cited from earlier work
[4] = atRA metabolite formation in human placental S9 preparations; assay type: in vitro ADME; conditions: preliminary studies, data not shown
recombinant CYP26A1 [5] = biological target: T1, recombinant CYP26A1 (Homo sapiens, UniProt O43174); experiment: Metabolite identification, atRA with recombinant CYP26A1; assay type: in vitro ADME; conditions: 5 µM atRA, 5 pmol CYP26A1, 2 min
T1 construct: made in house; host or cells: baculovirus infected insect cells (membrane fractions)
T1 sequence (O43174 1-497): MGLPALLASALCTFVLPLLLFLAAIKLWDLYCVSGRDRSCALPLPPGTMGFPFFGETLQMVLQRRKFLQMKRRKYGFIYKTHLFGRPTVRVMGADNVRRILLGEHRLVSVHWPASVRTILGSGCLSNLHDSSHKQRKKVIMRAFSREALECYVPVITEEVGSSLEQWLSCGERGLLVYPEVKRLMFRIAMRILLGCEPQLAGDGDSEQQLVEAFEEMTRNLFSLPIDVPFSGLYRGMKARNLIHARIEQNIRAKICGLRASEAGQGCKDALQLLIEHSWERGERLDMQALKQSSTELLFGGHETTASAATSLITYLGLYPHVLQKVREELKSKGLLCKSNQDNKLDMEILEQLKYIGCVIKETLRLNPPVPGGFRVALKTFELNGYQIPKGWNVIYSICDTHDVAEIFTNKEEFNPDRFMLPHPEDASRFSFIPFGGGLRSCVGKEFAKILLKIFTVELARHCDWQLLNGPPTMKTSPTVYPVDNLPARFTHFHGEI
Protocol: as §1, §2

recombinant CYP26B1 = biological target: T2, recombinant CYP26B1 (Homo sapiens, UniProt Q9NR63); experiment: Metabolite identification, atRA with recombinant CYP26B1; assay type: in vitro ADME; conditions: 5 µM atRA, 5 pmol CYP26B1, 10 min
T2 construct: made in house; host or cells: baculovirus infected insect cells (membrane fractions)
T2 sequence (Q9NR63 1-512): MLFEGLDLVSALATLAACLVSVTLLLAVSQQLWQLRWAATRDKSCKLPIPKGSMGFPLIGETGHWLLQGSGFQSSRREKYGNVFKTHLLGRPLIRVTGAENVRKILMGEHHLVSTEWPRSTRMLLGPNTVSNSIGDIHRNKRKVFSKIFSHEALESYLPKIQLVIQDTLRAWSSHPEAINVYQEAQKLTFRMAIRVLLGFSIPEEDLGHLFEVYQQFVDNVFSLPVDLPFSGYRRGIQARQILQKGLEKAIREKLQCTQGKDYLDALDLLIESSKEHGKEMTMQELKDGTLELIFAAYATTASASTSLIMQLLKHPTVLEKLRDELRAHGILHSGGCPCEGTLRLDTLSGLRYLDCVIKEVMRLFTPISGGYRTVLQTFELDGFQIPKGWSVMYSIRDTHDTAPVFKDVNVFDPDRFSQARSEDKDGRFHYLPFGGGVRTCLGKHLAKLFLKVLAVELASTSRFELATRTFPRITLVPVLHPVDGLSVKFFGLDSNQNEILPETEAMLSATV
Description: (§3) The aqueous phase contained 0.1 % formic acid throughout.

recombinant CYP3A7 = biological target: T3, recombinant CYP3A7 (Homo sapiens, UniProt P24462); experiment: Inhibition of recombinant CYP3A7 mediated 4-OH-RA formation; assay type: biochemical; conditions: CYP3A7 5 pmol/mL, 10 min
T3 construct: purchased BD Gentest
Protocol: (§4) Talarozole was chosen as the CYP26 inhibitor based on previous characterization of its potency towards CYP26A1 and CYP26B1[34]. Ketoconazole was included in the analysis as it is a well characterized pan-CYP inhibitor with high potency both towards CYP3A7 and CYP26s[16],[34]. […] All of the samples were extracted and analyzed by HPLC-MS/MS. […] Incubations were performed as described above for fetal livers and analyzed for metabolite formation by HPLC-MS/MS. The percent inhibition was calculated by comparing the metabolite formation velocity in the presence of the inhibitor to vehicle control.
as §3

[6] = system: CYP3A7 (atRA metabolite formation in fetal liver S9); experiment: Inhibition of atRA metabolite formation in human fetal liver S9 fractions by CYP selective inhibitors; assay type: in vitro ADME; conditions: human, human fetal liver S9 fractions, probe atRA (all-trans retinoic acid), 500 nM
Protocol: as §4, §3

CYP26 = system: CYP26; parameters: method as in PMID 21521770; conditions: cited from earlier work
CYP3A7 = system: CYP3A7; parameters: method as in PMID 21521770; conditions: cited from earlier work
[7] = system: atRA metabolite formation in human fetal liver S9 fractions; experiment: Inhibition of atRA metabolite formation in human fetal liver S9 fractions by CYP selective inhibitors; assay type: in vitro ADME; conditions: ketoconazole 10 µM, atRA 500 nM, S9 fractions from four representative donors, vs vehicle control
Protocol: as §4, §3

recombinant CYP26A1 [8] = biological target: T1, recombinant CYP26A1; experiment: Inhibition of recombinant CYP26A1 mediated 4-OH-RA formation; assay type: biochemical; conditions: talarozole 200 nM, atRA 500 nM, CYP26A1 2 pmol/mL, 2 min
Protocol: as §4, §3

[9] = system: CYP26 (atRA metabolite formation in fetal liver S9); experiment: Inhibition of atRA metabolite formation in human fetal liver S9 fractions by CYP selective inhibitors; assay type: in vitro ADME; conditions: human, human fetal liver S9 fractions, probe atRA (all-trans retinoic acid), 500 nM
Protocol: as §4, §3

T3 sequence (P24462 whole entry): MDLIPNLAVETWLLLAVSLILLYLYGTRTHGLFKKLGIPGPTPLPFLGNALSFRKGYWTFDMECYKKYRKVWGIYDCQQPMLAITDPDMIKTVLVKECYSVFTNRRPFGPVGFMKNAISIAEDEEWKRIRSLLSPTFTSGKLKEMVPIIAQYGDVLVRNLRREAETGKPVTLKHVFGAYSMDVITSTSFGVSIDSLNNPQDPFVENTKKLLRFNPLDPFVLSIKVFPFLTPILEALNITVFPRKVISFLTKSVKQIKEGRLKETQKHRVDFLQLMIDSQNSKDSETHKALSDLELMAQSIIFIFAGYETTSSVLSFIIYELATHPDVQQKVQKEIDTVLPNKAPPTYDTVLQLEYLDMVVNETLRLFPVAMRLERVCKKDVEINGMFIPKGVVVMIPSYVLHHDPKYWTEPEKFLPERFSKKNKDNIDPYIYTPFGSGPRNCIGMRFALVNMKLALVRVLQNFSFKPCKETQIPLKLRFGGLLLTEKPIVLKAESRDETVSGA

maternal atRA that could be extracted by fetal liver [2]: ≤ 5%
atRA metabolites formed (recombinant CYP26A1 [5]): hydroxylated atRA at multiple sites
atRA metabolites formed (recombinant CYP26B1): hydroxylated atRA at multiple sites
Compound: CC1=C(/C=C/C(C)=C/C=C/C(C)=C/C(=O)O)C(C)(C)CCC1 [atRA, All-trans-retinoic acid]
atRA metabolites observed [1]: only the formation of 4-OH-RA and its metabolite 4-oxo-RA was observed
plasma unbound fraction (fu) [3]: 0.01
formation of atRA metabolites [4]: did not observe any formation of atRA metabolites

inhibition of CYP3A7 mediated 4-OH-atRA formation (recombinant CYP3A7; fluconazole 300 μM, atRA 10 µM): confirmed
inhibition at 200 µM [6]: 30 to 60%
Compound: OC(Cn1cncn1)(Cn1cncn1)c1ccc(F)cc1F [fluconazole]
inhibition of CYP26 (CYP26): not to inhibit

Compound: CC(=O)N1CCN(c2ccc(OCC3COC(Cn4ccnc4)(c4ccc(Cl)cc4Cl)O3)cc2)CC1 (stereo not drawn) [ketoconazole]
inhibition of CYP3A7 (CYP3A7): inhibits
decrease in atRA metabolite formation [7]: > 95%
inhibition of CYP26 (CYP26): inhibits

inhibition of CYP3A7 mediated 4-OH-RA formation (recombinant CYP3A7; talarozole 200 nM, atRA 500 nM): did not significantly inhibit
inhibition of CYP26A1 (recombinant CYP26A1 [8]): reproduced
inhibition at 200 nM [9]: 30 to 40%
Compound: CCC(CC)C(c1ccc(Nc2nc3ccccc3s2)cc1)n1cncn1 (stereo not drawn) [talarozole]

From article PMC6420499 (Scientific Reports, 2019)
